Results taken from patent US20250179078A1, “INHIBITORS OF NLRP3” (PTC THERAPEUTICS, INC., priority 2022, published 2025).

Biological target: T1, NLRP3 (Homo sapiens, UniProt Q96P20)
T1 construct: host or cells: THP-1 cells differentiated with PMA
Test: IL-1β Secretion Assay (NLRP3-dependent IL1β secretion in THP1 cells)
Assay type: cell-based
Conditions: PMA-differentiated THP-1 cells; compounds incubated 20 h; 2.5 μM Nigericin 3 h; HTRF IL-1β readout; read-out: IC50 IL-1β Inhibition
Experimental: Monocytic THP-1 cells (ATCC: TIB-202) were maintained in growth media consisting of RPMI 1640 medium (ThermoFisher, Cat #11875-085), 10% FBS (ThermoFisher) and 0.05 mM β-mercaptoethanol (ThermoFisher, Cat #21985-023), according to the provider's instructions. The cell concentration was adjusted to 7.5×10^5 cells/mL, and plated in complete growth media with a final concentration of 100 ng/mL phorbol 12-myristate 13-acetate (PMA, Sigma #P8139). Cells were seeded at 100 µL/well into a 96-well cell culture plate (ThermoFisher Cat #165305) and allowed to differentiate for 24 h in a cell culture incubator at 37° C. with 5% CO2. Cells were washed 1× with 100 ul PBS and replaced with fresh RPMI+5% FBS. Compounds were serial diluted in DMSO with 3 fold dilution for a total of 7 concentrations. Diluted compounds were added to the cells at a ratio of 1:200 and incubated for 20 h. The NLRP3 inflammasome was activated with the addition of 2.5 μM Nigericin (Sigma: Cat #SML1779-1 ml), for 3 h. After incubation, 15 μL of conditioned media was removed and assayed for levels of IL-1β using the HTRF IL-1β assay kit (Cisbio: Cat #62HIL1BPEH) as per the manufacturer's instructions.
Compounds, once produced and prepared according to the present invention, can be assessed in variety of assays to characterize their activities. For example, NLRP3-dependent IL1β secretion was evaluated in THP1 cells. IC50 values of IL1β inhibition were calculated from the plot of percentage of inhibition versus the inhibitor concentration by a logistics fit. TABLE I depict examples of compounds according to generic Formula I. Data which is <1 nM is listed as *****; data 1-10 nM is listed as ****; data 10-100 nM is listed as ***, data 100-300 nM is listed as **, data ≥300 nM is listed as *.

T1 sequence (Q96P20 whole entry): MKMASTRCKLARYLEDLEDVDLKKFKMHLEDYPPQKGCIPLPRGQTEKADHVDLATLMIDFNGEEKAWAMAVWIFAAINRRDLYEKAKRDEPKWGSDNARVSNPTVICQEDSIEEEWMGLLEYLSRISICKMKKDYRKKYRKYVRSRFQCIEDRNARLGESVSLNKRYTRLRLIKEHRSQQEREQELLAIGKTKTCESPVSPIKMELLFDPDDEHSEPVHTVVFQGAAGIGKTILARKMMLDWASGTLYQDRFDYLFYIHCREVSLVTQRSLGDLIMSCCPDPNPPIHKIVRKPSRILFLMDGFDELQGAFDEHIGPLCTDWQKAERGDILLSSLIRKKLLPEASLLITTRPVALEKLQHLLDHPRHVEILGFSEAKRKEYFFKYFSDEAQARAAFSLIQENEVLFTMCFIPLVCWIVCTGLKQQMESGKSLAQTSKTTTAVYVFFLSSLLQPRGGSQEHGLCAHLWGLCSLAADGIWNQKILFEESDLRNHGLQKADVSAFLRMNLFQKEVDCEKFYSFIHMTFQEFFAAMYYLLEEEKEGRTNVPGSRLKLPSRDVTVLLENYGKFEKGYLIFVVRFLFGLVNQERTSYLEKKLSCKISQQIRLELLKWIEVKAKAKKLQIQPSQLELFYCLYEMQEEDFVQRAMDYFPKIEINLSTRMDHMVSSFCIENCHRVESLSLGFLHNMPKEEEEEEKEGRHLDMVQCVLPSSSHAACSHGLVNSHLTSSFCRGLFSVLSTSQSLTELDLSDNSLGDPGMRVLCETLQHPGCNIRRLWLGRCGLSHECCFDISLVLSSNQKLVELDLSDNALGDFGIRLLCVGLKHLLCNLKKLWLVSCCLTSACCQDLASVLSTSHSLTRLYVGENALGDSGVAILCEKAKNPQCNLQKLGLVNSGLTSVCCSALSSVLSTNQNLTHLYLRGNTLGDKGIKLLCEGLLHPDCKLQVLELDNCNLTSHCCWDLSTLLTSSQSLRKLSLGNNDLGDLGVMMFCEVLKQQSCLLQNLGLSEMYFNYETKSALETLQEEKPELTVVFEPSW

IC50 [nM] | Compound
10 to 100 | CCOc1ccc(-c2nnc(N[C@@H]3CCCN(C)C3)n3cccc23)c(OC(F)(F)F)c1 [Compound 43, 1-[4-ethoxy-2-(trifluoromethoxy)phenyl]-N-[(3R)-1-methylpiperidin-3-yl]pyrrolo[1,2-d][1,2,4]triazin-4-amine]
100 to 300 | O[C@H]1CCCC[C@@H]1Nc1nnc(-c2ccc(C(F)(F)F)cc2C(F)(F)F)c2cccn12 [Compound 99, (1S,2S)-2-({1-[2,4-bis(trifluoromethyl)phenyl]pyrrolo[1,2-d][1,2,4]triazin-4-yl}amino)cyclohexan-1-ol]
1 to 10 | CC(Nc1nnc(-c2ccc(C(F)(F)F)cc2OC(F)(F)F)c2cccn12)c1cccc(O)c1 (stereo not shown) [Compound 142, 3-[1-({1-[2-(trifluoromethoxy)-4-(trifluoromethyl)phenyl]pyrrolo[1,2-d][1,2,4]triazin-4-yl}amino)ethyl]phenol]
1 to 10 | Cc1ccc(-c2nnc(N[C@@H]3CCCN(CCO)C3)n3cncc23)c(OC(F)F)c1 [Compound 184, 2-[(3R)-3-({1-[2-(difluoromethoxy)-4-methylphenyl]imidazo[1,5-d][1,2,4]triazin-4-yl}amino)piperidin-1-yl]ethan-1-ol]
1 to 10 | C[C@]1(O)C[C@@H](Nc2nnc(-c3ccc(C(F)(F)F)cc3C(F)(F)F)c3ccnn23)C1 [Compound 4, (1s,3s)-3-({4-[2,4-bis(trifluoromethyl)phenyl]pyrazolo[1,5-d][1,2,4]triazin-7-yl}amino)-1-methylcyclobutan-1-ol]
1 to 10 | COc1ccc(-c2nnc(NC3CCNC3=O)n3cncc23)c(C(F)(F)F)c1 (stereo not shown) [Compound 235, 3-({1-[4-methoxy-2-(trifluoromethyl)phenyl]imidazo[1,5-d][1,2,4]triazin-4-yl}amino)pyrrolidin-2-one]
< 1 | CCN1CCC[C@@H](Nc2nnc(-c3ccc(OC)cc3C(F)(F)F)c3cc(C)nn23)C1 [Compound 373, N-[(3R)-1-ethylpiperidin-3-yl]-4-[4-methoxy-2-(trifluoromethyl)phenyl]-2-methylpyrazolo[1,5-d][1,2,4]triazin-7-amine]
1 to 10 | COc1ccc(-c2nnc(NC3CCNC3=O)n3cc(C)cc23)c(OC(F)(F)F)c1 (stereo not shown) [Compound 162, 3-({1-[4-methoxy-2-(trifluoromethoxy)phenyl]-7-methylpyrrolo[1,2-d][1,2,4]triazin-4-yl}amino)pyrrolidin-2-one]
100 to 300 | COc1ccc(-c2nnc(NC3CC(C(C)(C)O)C3)n3cncc23)c(OC(F)(F)F)c1 (stereo not shown) [Compound 338, 2-[3-({1-[4-methoxy-2-(trifluoromethoxy)phenyl]imidazo[1,5-d][1,2,4]triazin-4-yl}amino)cyclobutyl]propan-2-ol]
< 1 | C[C@]1(O)C[C@@H](Nc2nnc(-c3ccc(C4CC4)cc3CC(F)(F)F)c3cncn23)C1 [Compound 348, (1s,3s)-3-({1-[4-cyclopropyl-2-(2,2,2-trifluoroethyl)phenyl]imidazo[1,5-d][1,2,4]triazin-4-yl}amino)-1-methylcyclobutan-1-ol]
≥ 300 | COc1cccc(C(C)Nc2nnc(-c3ccc(OC)cc3OC(F)(F)F)c3cncn23)c1 (stereo not shown) [Compound 230, N-[1-(3-methoxyphenyl)ethyl]-1-[4-methoxy-2-(trifluoromethoxy)phenyl]imidazo[1,5-d][1,2,4]triazin-4-amine]
10 to 100 | OCCN1CCC[C@@H](Nc2nnc(-c3ccc(Cl)cc3OC(F)F)c3cncn23)C1 [Compound 192, 2-[(3R)-3-({1-[4-chloro-2-(difluoromethoxy)phenyl]imidazo[1,5-d][1,2,4]triazin-4-yl}amino)piperidin-1-yl]ethan-1-ol]
100 to 300 | COc1ccc(-c2nnc(Nc3cc[nH]n3)n3cncc23)c(OC(F)(F)F)c1 [Compound 220, 1-[4-methoxy-2-(trifluoromethoxy)phenyl]-N-(1H-pyrazol-3-yl)imidazo[1,5-d][1,2,4]triazin-4-amine]
1 to 10 | COc1ccc(-c2nnc(N[C@@H]3CCOC[C@H]3O)n3cccc23)c(CC(F)(F)F)c1 [Compound 144, (3S,4R)-4-({1-[4-methoxy-2-(2,2,2-trifluoroethyl)phenyl]pyrrolo[1,2-d][1,2,4]triazin-4-yl}amino)oxan-3-ol]
10 to 100 | COc1ccc(-c2nnc(NC3CCNC3=O)n3cncc23)c(OC(F)(F)F)c1 (stereo not shown) [Compound 284, 3-({1-[4-methoxy-2-(trifluoromethoxy)phenyl]imidazo[1,5-d][1,2,4]triazin-4-yl}amino)pyrrolidin-2-one]
1 to 10 | COc1cc(F)c(-c2nnc(N[C@@H]3CCCN(C)C3)n3cccc23)c(C2CC2)c1 [Compound 75, 1-(2-cyclopropyl-6-fluoro-4-methoxyphenyl)-N-[(3R)-1-methylpiperidin-3-yl]pyrrolo[1,2-d][1,2,4]triazin-4-amine]
1 to 10 | COc1ccc(-c2nnc(N[C@@H]3CCCC[C@H]3O)n3cncc23)c(CC(F)(F)F)c1 [Compound 237, (1R,2R)-2-({1-[4-methoxy-2-(2,2,2-trifluoroethyl)phenyl]imidazo[1,5-d][1,2,4]triazin-4-yl}amino)cyclohexan-1-ol]
1 to 10 | CN1CCCC(Nc2nnc(-c3ccc(C(F)(F)F)cc3C(F)(F)F)c3cncn23)C1=O (stereo not shown) [Compound 272, 3-({1-[2,4-bis(trifluoromethyl)phenyl]imidazo[1,5-d][1,2,4]triazin-4-yl}amino)-1-methylpiperidin-2-one]
10 to 100 | CCN1C[C@H](F)C[C@@H](Nc2nnc(-c3ccc(Br)cc3C(F)(F)F)c3cncn23)C1 [Compound 205, 1-[4-bromo-2-(trifluoromethyl)phenyl]-N-[(3R,5R)-1-ethyl-5-fluoropiperidin-3-yl]imidazo[1,5-d][1,2,4]triazin-4-amine]
1 to 10 | OCCN1CCC[C@@H](Nc2nnc(-c3ccc(OC(F)F)cc3OC(F)(F)F)c3cncn23)C1 [Compound 258, 2-[(3R)-3-({1-[4-(difluoromethoxy)-2-(trifluoromethoxy)phenyl]imidazo[1,5-d][1,2,4]triazin-4-yl}amino)piperidin-1-yl]ethan-1-ol]
10 to 100 | COc1ccc(-c2nnc(NC3CC(C)(CO)C3)n3cncc23)c(CC(F)(F)F)c1 (stereo not shown) [Compound 337, [3-({1-[4-methoxy-2-(2,2,2-trifluoroethyl)phenyl]imidazo[1,5-d][1,2,4]triazin-4-yl}amino)-1-methylcyclobutyl]methanol]
1 to 10 | CN1C[C@H](F)C[C@@H](Nc2nnc(-c3ccc(C(F)(F)F)cc3C(F)(F)F)c3cncn23)C1 [Compound 252, 1-[2,4-bis(trifluoromethyl)phenyl]-N-[(3R,5R)-5-fluoro-1-methylpiperidin-3-yl]imidazo[1,5-d][1,2,4]triazin-4-amine]
1 to 10 | CCN1C[C@H](F)C[C@@H](Nc2nnc(-c3ccc(OC)cc3OC(F)(F)F)c3c(F)ccn23)C1 [Compound 53, N-[(3R,5R)-1-ethyl-5-fluoropiperidin-3-yl]-8-fluoro-1-[4-methoxy-2-(trifluoromethoxy)phenyl]pyrrolo[1,2-d][1,2,4]triazin-4-amine]
100 to 300 | COc1ccc(-c2nnc(NCc3nncn3C)n3cccc23)c(OC(F)(F)F)c1 [Compound 92, 1-[4-methoxy-2-(trifluoromethoxy)phenyl]-N-[(4-methyl-4H-1,2,4-triazol-3-yl)methyl]pyrrolo[1,2-d][1,2,4]triazin-4-amine]

Compound | IC50 [nM]
C[C@@H](Nc1nnc(-c2ccc(C(F)(F)F)cc2OC(F)F)c2cccn12)c1cccc(O)c1 (single isomer, unassigned) [Compound 102] | 1 to 10
